Reference: patent US6683184B2, “Piperazine derivatives and process for the preparation thereof” (Samjin Pharmaceutical Co., Ltd., priority 1999, dated 2004)
Values after ≈ are worked out from the molar mass of the structure shown.

Legend:
Format in all cases: cell-based
[1] = test system: A549 (human non-small lung cell); assay: In vitro antitumor effect against human tumor cell lines, SRB assay, A549; settings: A549 cells, 48 hours; for IC50: Homo sapiens, read-out: ED50 A 549
Description: (§1) In vitro antitumor effect against human tumor cell lines.
(§2) a. Human solid tumor cell lines, A549(non-small lung cell), SKMEL-2(melanoma), HCT-15(colon), SKOV-3(ovarian), XF-498(CNS) were cultured at 37° C. in 5% CO2 incubators using RPMI 1640 media containing 10% FBS, while they were transfer-cultured successively once or twice per week. Cell cultures were dissolved in a solution of 0.25% trypsin and 3 mM CDTA PBS(−) and then cells were separated from media which the cells were sticked on.
(§3) b. 5×10^3˜2×10^4 cells were added into each well of 96-well plate and cultured in 5% CO2 incubator, at 37° C., for 24 hours.
(§4) c. Each sample drug was dissolved in a little DMSO and diluted with the used medium to a prescribed concentration for experiments, wherein the final concentration of DMSO was controlled below 0.5%.
(§5) d. Medium of each well cultured for 24 hours as above b. was removed by aspiration. Each 200 μl of drug samples prepared in c. was added into each well and the wells were cultured for 48 hours. Tz(time zero) plates were collected at the point of time drugs were added.
(§6) e. According to the SRB assay method, cell fixing with TCA, staining with 0.4% SRB solution, washing with 1% acetic acid and elution of dye with 10 mM Tris solution were carried out on Tz plates and culture-ended plates, whereby OD values were measured at 520 nm.
(§7) a. Time zero(Tz) value was determined with measuring the SRB protein amounts of the Tz plates collected at the point of time drugs were added.
(§8) b. Control value(C) was determined with the OD values of wells untreated with a drug.
(§9) c. Drug-treated test value(T) was determined with the OD values of drug-treated wells.
(§10) d. Effects of drugs were estimated with growth stimulation, net growth inhibition, net killing etc., being calculated from Tz, C and T.
(§11) e. If T≧Tz, cellular response function was calculated by 100×(T−Tz)/(C−Tz), and if T<Tz, by 100×(T−Tz)/Tz.

SKOV-3 (human ovarian) = assay: In vitro antitumor effect against human tumor cell lines, SRB assay, SKOV-3; settings: SK-OV-3 cells, 48 hours; for IC50: Homo sapiens, read-out: ED50 SK-OV-3
Description: as §1, §2, §3, §4, §5, §6, §7, §8, §9, §10, §11

SKMEL-2 (human melanoma) = assay: In vitro antitumor effect against human tumor cell lines, SRB assay, SKMEL-2; settings: SK-MEL-2 cells, 48 hours; for IC50: Homo sapiens, read-out: ED50 SK-MEL-2
Description: as §1, §2, §3, §4, §5, §6, §7, §8, §9, §10, §11

XF 498 (human CNS) = assay: In vitro antitumor effect against human tumor cell lines, SRB assay, XF 498; settings: 48 hours; for ED50 XF-498: XF-498 cells; for IC50: Homo sapiens, XF498, XF-498 cells, read-out: ED50 XF-498
Description: as §1, §2, §3, §4, §5, §6, §7, §8, §9, §10, §11

HCT-15 (human colon) = assay: In vitro antitumor effect against human tumor cell lines, SRB assay, HCT-15; settings: HCT 15 cells, 48 hours; for IC50: Homo sapiens, read-out: ED50 HCT 15
Description: as §1, §2, §3, §4, §5, §6, §7, §8, §9, §10, §11

Row | Compound | IC50 [1] [ng/mL] | IC50 (SKOV-3 (human ovarian)) [ng/mL] | IC50 (SKMEL-2 (human melanoma)) [ng/mL] | IC50 (XF 498 (human CNS)) [ng/mL] | IC50 (HCT-15 (human colon)) [ng/mL] | ED50 A 549 [1] [ng/mL] | ED50 SK-OV-3 (SKOV-3 (human ovarian)) [ng/mL] | ED50 SK-MEL-2 (SKMEL-2 (human melanoma)) [ng/mL] | ED50 XF-498 (XF 498 (human CNS)) [ng/mL] | ED50 HCT 15 (HCT-15 (human colon)) [ng/mL]
1 | 1-[(5,6-Dichloroethyl-2-methoxypyrazin-3-yl)aminocarbonyl]-4-(3,5-dimethoxyphenyl)piperazine [Example 35] |  |  |  |  |  | 0.1 | 0.7 | <0.1 | 0.1 | 0.1
2 | 1-[(5,6-Dichloroethyl-2-methoxypyrazin-3-yl)aminocarbonyl]-4-(3,5-dimethylphenyl)piperazine [Example 34] |  |  |  |  |  | 2.3 | 3.8 | 0.3 | 2.1 | 2.1
3 | N.N.[Cl][Pt][Cl] [Cisplatin, reference compound] |  |  |  |  |  | 910 | 1320 | 870 | 770 | 3170
4 | CCc1ccccc1N1CCN(C(=O)Nc2nc(C)c(C)nc2OC)CC1 [Example 4, 1-[(5,6-Dimethyl-2-methoxypyrazin-3-yl)aminocarbonyl]-4-(2-ethylphenyl)piperazine] | 47 (≈ 0.127 µM) | 251 (≈ 0.679 µM) | 42 (≈ 0.114 µM) | 89 (≈ 0.241 µM) | 38 (≈ 0.103 µM) |  |  |  |  | 
5 | COc1nc(C)c(C)nc1NC(=O)N1CCN(c2ccccc2SC)CC1 [Example 14, 1-[(5,6-Dimethyl-2-methoxypyrazin-3-yl)aminocarbonyl]-4-(2-methylthiophenyl)piperazine] | 204 (≈ 0.526 µM) | 677 (≈ 1.75 µM) | 283 (≈ 0.73 µM) | 340 (≈ 0.877 µM) | 67 (≈ 0.173 µM) |  |  |  |  | 
6 | COc1nc2ccccc2nc1NC(=O)N1CCN(c2cccc(Br)c2)CC1 [Example 45, 1-[(2-Methoxyquinoxalin-3-yl)aminocarbonyl]-4-(3-bromop-henyl)piperazine] |  |  |  |  |  | 0.1 (≈ 0.000226 µM) | 0.2 (≈ 0.000452 µM) | <0.1 | 0.2 (≈ 0.000452 µM) | 0.1 (≈ 0.000226 µM)
7 | COc1nc2ccccc2nc1NC(=O)N1CCN(c2cc(F)cc(F)c2)CC1 [Example 46, 1-[(2-Methoxyquinoxalin-3-yl)aminocarbonyl]-4-(3,5-difluo-rophenyl)piperazine] |  |  |  |  |  | 2 (≈ 0.00501 µM) | 7 (≈ 0.0175 µM) | 3 (≈ 0.00751 µM) | 1 (≈ 0.0025 µM) | 2 (≈ 0.00501 µM)
8 | COc1nc2ccccc2nc1NC(=O)N1CCN(c2ccccc2SC)CC1 [Example 51, 1-[(2-Methoxyquinoxalin-3-yl)aminocarbonyl]-4-(2-methylt-hiophenyl)piperazine] |  |  |  |  |  | 370 (≈ 0.904 µM) | 680 (≈ 1.66 µM) | 280 (≈ 0.684 µM) | 630 (≈ 1.54 µM) | 180 (≈ 0.44 µM)
9 | COc1cc(OC)cc(N2CCN(C(=Nc3cc(C)c(C)nc3OC)NO)CC2)c1 [Example 101, N-Hydroxy-N′-(5,6-dimethyl-2-methoxypyridin-3-yl)-[4-(3,5-dimethoxyphenyl)piperazin-1-yl]carboxyimidamide] |  |  |  |  |  | 0.3 (≈ 0.000722 µM) | 0.3 (≈ 0.000722 µM) | 0.3 (≈ 0.000722 µM) | 0.2 (≈ 0.000481 µM) | 0.1 (≈ 0.000241 µM)
10 | COc1nc(C)c(C)cc1N=C(NO)N1CCN(c2cc(CO)cc(CO)c2)CC1 [Example 107, N-Hydroxy-N′-(5,6-dimethyl-2-methoxypyridin-3-yl)-{4-[3,5-bis-(hydroxymethyl)phenyl]piperazin-1-yl}carboxyimidamide] |  |  |  |  |  | 32 (≈ 0.077 µM) | 13 (≈ 0.0313 µM) | 5 (≈ 0.012 µM) | 8 (≈ 0.0193 µM) | 9 (≈ 0.0217 µM)
11 | COC(=O)c1cc(N=C(NO)N2CCN(c3cc(OC)cc(OC)c3)CC2)c(OC)nc1C [Example 118, N-Hydroxy-N′-(5-methoxycarbonyl-2-methoxy-6-methylpyridin-3-yl)-[4-(3,5-dimethoxyphenyl)piperazin-1-yl]carboxyimidamide] |  |  |  |  |  | 57 (≈ 0.124 µM) | 32 (≈ 0.0696 µM) | 19 (≈ 0.0413 µM) | 17 (≈ 0.037 µM) | 0.2 (≈ 0.000435 µM)
12 | COC(=O)c1cc(N=C(NO)N2CCN(c3cc(F)cc(F)c3)CC2)c(OC)nc1C [Example 120, N-Hydroxy-N′-(5-methoxycarbonyl-2-methoxy-6-methylpyridin-3-yl)-[4-(3,5-difluorophenyl)piperazin-1-yl]carboxyimidamide] |  |  |  |  |  | 640 (≈ 1.47 µM) | 730 (≈ 1.68 µM) | 280 (≈ 0.643 µM) | 820 (≈ 1.88 µM) | 300 (≈ 0.689 µM)
13 | COc1cc(OC)cc(N2CCN(C(=Nc3cc(CO)c(C)nc3OC)NO)CC2)c1 [Example 125, N-Hydroxy-N′-(5-hydroxymethyl-2-methoxy-6-methylpyridin-3-yl)-[4-(3,5-dimethoxyphenyl)piperazin-1-yl]carboxyimidamide] |  |  |  |  |  | 0.9 (≈ 0.00209 µM) | 0.8 (≈ 0.00185 µM) | 0.1 (≈ 0.000232 µM) | 0.1 (≈ 0.000232 µM) | 0.1 (≈ 0.000232 µM)

Now from value to compound, other results behind:

Row | IC50 [1] [ng/mL] | IC50 (SKOV-3 (human ovarian)) [ng/mL] | IC50 (SKMEL-2 (human melanoma)) [ng/mL] | IC50 (XF 498 (human CNS)) [ng/mL] | IC50 (HCT-15 (human colon)) [ng/mL] | Compound | ED50 A 549 [1] [ng/mL] | ED50 SK-OV-3 (SKOV-3 (human ovarian)) [ng/mL] | ED50 SK-MEL-2 (SKMEL-2 (human melanoma)) [ng/mL] | ED50 XF-498 (XF 498 (human CNS)) [ng/mL] | ED50 HCT 15 (HCT-15 (human colon)) [ng/mL]
14 | 100 (≈ 0.255 µM) | 330 (≈ 0.843 µM) | 70 (≈ 0.179 µM) | 140 (≈ 0.358 µM) | 60 (≈ 0.153 µM) | CCc1ccccc1N1CCN(C(=O)Nc2nc3ccccc3nc2OC)CC1 [Example 39, 1-[(2-Methoxyquinoxalin-3-yl)aminocarbonyl]-4-(2-ethylphenyl)piperazine] |  |  |  |  | 
15 | 410 (≈ 1.01 µM) | 1010 (≈ 2.49 µM) | 370 (≈ 0.912 µM) | 810 (≈ 2 µM) | 390 (≈ 0.962 µM) | COc1nc2ccccc2nc1NC(=O)N1CCN(c2ccccc2C(C)C)CC1 [Example 40, 1-[(2-Methoxyquinoxalin-3-yl)aminocarbonyl]-4-(2-isoprop-ylphenyl)piperazine] |  |  |  |  | 
16 | 170 (≈ 0.389 µM) | 210 (≈ 0.48 µM) | 930 (≈ 2.13 µM) | 270 (≈ 0.617 µM) | 50 (≈ 0.114 µM) | COc1cc(OC)cc(N2CCN(C(=O)N(C)c3nc4ccccc4nc3OC)CC2)c1 [Example 53, 1-[(2-Methoxyquinoxalin-3-yl) N-methylaminocarbonyl]-4-(3,5-dimethoxyphenyl)piperazine] |  |  |  |  | 
17 | 340 (≈ 0.838 µM) | 490 (≈ 1.21 µM) | 220 (≈ 0.543 µM) | 410 (≈ 1.01 µM) | 330 (≈ 0.814 µM) | COc1nc2ccccc2nc1N(C)C(=O)N1CCN(c2cc(C)cc(C)c2)CC1 [Example 55, 1-[(2-Methoxyquinoxalin-3-yl)N-methylaminocarbonyl]-4-(3,5-dimethylphenyl)piperazine] |  |  |  |  | 
18 | 380 (≈ 0.915 µM) | 860 (≈ 2.07 µM) | 340 (≈ 0.818 µM) | 470 (≈ 1.13 µM) | 310 (≈ 0.746 µM) | COc1nc2ccccc2nc1NC(=S)N1CCN(c2cc(F)cc(F)c2)CC1 [Example 68, 1-[(2-Methoxyquinoxalin-3-yl)aminothiocarbonyl]-4-(3,5-difluorophenyl)piperazine] |  |  |  |  | 
19 | 40 (≈ 0.103 µM) | 80 (≈ 0.205 µM) | 30 (≈ 0.077 µM) | 40 (≈ 0.103 µM) | 60 (≈ 0.154 µM) | COc1cc2ccccc2cc1NC(=O)N1CCN(c2cc(C)cc(C)c2)CC1 [Example 86, 1-[(2-Methoxynaphth-3-yl)aminocarbonyl]-4-(3,5-dimethylphenyl)piperazine] |  |  |  |  | 
20 | 10 (≈ 0.0237 µM) | 30 (≈ 0.0712 µM) | 660 (≈ 1.57 µM) | 80 (≈ 0.19 µM) | 8 (≈ 0.019 µM) | COc1cc(OC)cc(N2CCN(C(=O)Nc3cc4ccccc4cc3OC)CC2)c1 [Example 87, 1-[(2-Methoxynaphth-3-yl)aminocarbonyl]-4-(3,5-dimethoxyphenyl)piperazine] |  |  |  |  | 
21 | 40 (≈ 0.093 µM) | 200 (≈ 0.465 µM) | 30 (≈ 0.0697 µM) | 40 (≈ 0.093 µM) | 50 (≈ 0.116 µM) | COc1cc2ccccc2cc1NC(=O)N1CCN(c2cc(Cl)cc(Cl)c2)CC1 [Example 89, 1-[(2-Methoxynaphth-3-yl)aminocarbonyl]-4-(3,5-dichlorophenyl)piperazine] |  |  |  |  | 
22 | 380 (≈ 0.942 µM) | 350 (≈ 0.867 µM) | 900 (≈ 2.23 µM) | 680 (≈ 1.69 µM) | 200 (≈ 0.496 µM) | COc1cc2ccccc2cc1N(C)C(=O)N1CCN(c2cc(C)cc(C)c2)CC1 [Example 90, 1-[(2-Methoxynaphth-3-yl)-N-methylaminocarbonyl]-4-(3,5-dimethylphenyl)piperazine] |  |  |  |  | 
